Reference: US20190210973A1, “COMPOUNDS AND METHODS FOR TREATMENT OF CYSTIC FIBROSIS” (The Curators of the University of Missouri, priority 2018, published 2019)

What was measured:
Type in all cases: cell-based
delF508-CFTR [1] = target: T1, delF508-CFTR (Homo sapiens, UniProt P13569, DEL508-508); assay: Western blot of delF508-CFTR membrane (surface) expression, Band C; set-up: delF508 stably-transfected C127 cells were cultured in DMEM with 10% FBS in 6-well plates; expressed in transfected cells; host or cells: C127 cells stably expressing delF508-CFTR; details: for surface expression of delF508-CFTR (Band C, corrected to vimentin, DMSO = 100): C127 cells
Source text: The amount of CFTR proteins in the cell membrane can be determined with Western blot analysis. Like all membrane proteins in the cell, the CFTR protein is synthesized in the endoplasmic reticulum (ER), translocated to the Golgi apparatus for glycosylation before trafficked to the plasma membrane. Because of the addition of complex sugar molecules to CFTR, the molecular weight of “mature” or post-Golgi CFTR in the plasma membrane is higher than that of newly synthesized proteins in the ER. Thus, in Western blot, it is possible to discern two distinct bands: band C representing high molecular weight, mature CFTR, and band B low molecular weight, immature CFTR. While wild-type proteins are present mostly as band C, Class II disease-associated mutations such as delF508 causes a drastic diminution of band C, resulting in an effective decrease of N in the formula N×Po×i. The effects of the reagents (or CFTR correctors) that enhance band C can thus be quantitatively assessed with the Western blot analysis. By the same token, any interactions between different compounds, with positive or negative impact on band C, can be determined with this assay.
Western blot experiments were carried out in both transient expression system (CHO cells) and a stable cell line (C127 cells). CHO cells, grown in 35 mm dishes, were transfected with delF508-CFTR construct in pcDNA plasmids using X-tremeGENE (Roche). Six hours after transfection, tested compounds were added to the medium. In case of delF508-CFTR-expressing stable C127 cells, compounds were added to the medium at about 30% confluence. In both cases, cells were lysed 18 hours post drug treatment using 1×SDS loading buffer. Cell lysates were sheared by pushed through 18G needles. Whole cell lysate were separated in 4˜20% gradient gels (Bio-Rad Laboratories) and transferred onto nitrocellulose membranes. The membranes were blocked with 5% milk in TBST buffer (20 mM Tris, 137 mM NaCl, 0.1% Tween 20) at 4° C. overnight. The membranes were then probed with anti-CFTR antibody (AB596 from the Cystic Fibrosis Foundation) and anti-vimentin antibody as a control (Santa Cruz Biotechnology) at room temperature for two hours. The membranes were washed with TBST five times and then incubated with anti-mouse IgG, HRP-linked antibody (Cell Signaling Technology) at room temperature for one hour. The membranes were washed three times with TBST and developed with chemiluminescence reagent (Thermo Scientific). The luminescence was detected and quantified by a Molecular Image Chemi Doc (Bio-Rad Laboratories).
For Western blotting experiments, delF508 stably-transfected C127 cells were cultured in DMEM with 10% FBS in 6-well plates. Different tested compounds were added to the culture medium within 24 hours of passage to the desired concentration. Cells were lysed 18 hours post drug treatment using 1×SDS loading buffer. Cell lysates were sheared by pushed through 18G needles. Whole cell lysates were separated in 4-20% gradient gels (Bio-Rad Laboratories) and transferred onto nitrocellulose membranes. The membranes were blocked with 5% milk in TBST buffer (20 mM Tris, 137 mM NaCl, 0.1% Tween 20) at 4° C. overnight. The membranes were then probed with anti-CFTR antibody (AB660 from CFTR foundation) and anti-vimentin antibody as a loading control (Santa Cruz Biotechnology) at room temperature for two hours. The membranes were washed with TBST five times and then incubated with anti-mouse IgG, HRP linked antibody (Cell Signaling Technology) at room temperature for one hour. The membranes were washed three times with TBST and developed with chemiluminescence reagent (Thermo Scientific). The luminescence was detected by a Molecular Image Chemi Doc (Bio-Rad Laboratories). […]

delF508-CFTR [2] = target: T1, delF508-CFTR; assay: Patch-clamp recording of delF508-CFTR currents in excised inside-out patches of transfected CHO cells
Source text: (§1) Patch-clamp is considered the gold standard for assessing directly ion channel function in real time. By attaching a glass microelectrode on the surface of a cell, it is possible to record the currents generated by channels proteins that are present in this tiny “patch” of cell membranes. Since millions of ions pass through a single ion channel pore per second, the resulting microscopic currents from a single channel protein molecule can be detected with modem patch-clamp amplifiers. As ion channels (a conductor in electricity term) are arranged in parallel in the cell membrane, it is also possible to assay a group of ion channels by monitoring macroscopic currents representing the sum of currents from individual channels. Microscopic recordings allow artisans to examine exquisitely the effects of compounds on the Po and kinetic parameters of CFTR channels; whereas macroscopic recordings provide an assay not only to quantify the overall effects of compounds on N×Po×i, but also monitor the stability of the CFTR currents in real time.
(§2) Chinese hamster ovary (CHO) cells were grown at 37° C. in Dulbecco's modified Eagle's medium supplemented with 10% fetal bovine serum. Cells were subcultured into 35-mm tissue culture dishes 1 day before transfection. PolyFect transfection reagent (QIAGEN) was used to cotransfect CFTR cDNA and pEGFP-C3 (Takara Bio Inc.), which encodes green fluorescence proteins, into CHO cells. After transfection, cells were incubated at 27° C. for at least 2 days before electrophysiological experiments were performed.
(§3) Glass chips carrying the transfected cells were transferred to a chamber located on the stage of an inverted microscope (IX51; Olympus). Borosilicate capillary glasses were used to make patch pipettes using a two-stage micropipette puller (PP-81, Narishige, Japan). The pipettes were polished with a homemade microforge to a resistance of 2-4 MΩ in the bath solution. Once the seal resistance reached >40 GΩ, membrane patches were excised into an inside-out mode. Subsequently, the pipette was moved to the outlet of a three-barrel perfusion system and perfused with 25 IU PKA and 2 mM ATP until the CFTR current reached a steady state. A patch-clamp amplifier (EPC10, HEKA, Germany) was used to record electrophysiological data at room temperature. The data were filtered online at 100 Hz with an eight-pole Bessel filter (LPF-8; Warner Instruments) and digitized to a computer at a sampling rate of 500 Hz. […] Membrane potential was held at −30 or −50 mV for all recordings.
(§4) Disease-causing mutations (G551D and delF508) were made with PCR-based site-directed mutagenesis using the Pfu Ultra II (Agilent Technologies). […] The cDNA constructs of CFTR (G551D and delF508) were co-transfected with peGFP-C3 (Takara Bio Inc.) encoding the green fluorescent protein into CHO cells using PolyFect transfection reagent (QIAGEN). The transfected cells were transferred into 35 mm tissue culture dishes containing one layer of sterilized glass chips for cells to grow on. The transfected cells were incubated at 27° C. for 2-7 days before electrophysiological experiments were performed.
(§5) All patch-clamp experiments were carried out in the excised inside-out configuration. Micropipettes made of borosilicate capillary glass were pulled with a two-stage vertical puller (Narishige) and then fire-polished with a homemade microforge to reach a pipet resistance of 2-4 MΩ when the pipettes were filled with a standard inside-out pipet solution that contains: 140 mM N-Methyl-D-glucamine-Cl (NMDG-Cl), 2 mM MgCl2, 5 mM CaCl2) and 10 mM HEPES, adjusted to pH 7.4 with NMDG.

G551D-CFTR = target: T2, G551D-CFTR (Homo sapiens, UniProt P13569, G551D); assay: Patch-clamp recording of G551D-CFTR currents in excised inside-out patches of transfected CHO cells; details: for fold increase of G551D-CFTR currents (ILZH+ATP/IATP): single application
T2 construct: The cDNA constructs of CFTR (G551D and delF508) were co-transfected with peGFP-C3; expressed in transfected cells; host or cells: CHO cells (ATCC), transient co-transfection with pEGFP-C3 (GFP as a separate marker, not fused)
Source text: as §1, §2, §3, §4, §5

T2 sequence (P13569 whole entry G551D, the tested form may be a part): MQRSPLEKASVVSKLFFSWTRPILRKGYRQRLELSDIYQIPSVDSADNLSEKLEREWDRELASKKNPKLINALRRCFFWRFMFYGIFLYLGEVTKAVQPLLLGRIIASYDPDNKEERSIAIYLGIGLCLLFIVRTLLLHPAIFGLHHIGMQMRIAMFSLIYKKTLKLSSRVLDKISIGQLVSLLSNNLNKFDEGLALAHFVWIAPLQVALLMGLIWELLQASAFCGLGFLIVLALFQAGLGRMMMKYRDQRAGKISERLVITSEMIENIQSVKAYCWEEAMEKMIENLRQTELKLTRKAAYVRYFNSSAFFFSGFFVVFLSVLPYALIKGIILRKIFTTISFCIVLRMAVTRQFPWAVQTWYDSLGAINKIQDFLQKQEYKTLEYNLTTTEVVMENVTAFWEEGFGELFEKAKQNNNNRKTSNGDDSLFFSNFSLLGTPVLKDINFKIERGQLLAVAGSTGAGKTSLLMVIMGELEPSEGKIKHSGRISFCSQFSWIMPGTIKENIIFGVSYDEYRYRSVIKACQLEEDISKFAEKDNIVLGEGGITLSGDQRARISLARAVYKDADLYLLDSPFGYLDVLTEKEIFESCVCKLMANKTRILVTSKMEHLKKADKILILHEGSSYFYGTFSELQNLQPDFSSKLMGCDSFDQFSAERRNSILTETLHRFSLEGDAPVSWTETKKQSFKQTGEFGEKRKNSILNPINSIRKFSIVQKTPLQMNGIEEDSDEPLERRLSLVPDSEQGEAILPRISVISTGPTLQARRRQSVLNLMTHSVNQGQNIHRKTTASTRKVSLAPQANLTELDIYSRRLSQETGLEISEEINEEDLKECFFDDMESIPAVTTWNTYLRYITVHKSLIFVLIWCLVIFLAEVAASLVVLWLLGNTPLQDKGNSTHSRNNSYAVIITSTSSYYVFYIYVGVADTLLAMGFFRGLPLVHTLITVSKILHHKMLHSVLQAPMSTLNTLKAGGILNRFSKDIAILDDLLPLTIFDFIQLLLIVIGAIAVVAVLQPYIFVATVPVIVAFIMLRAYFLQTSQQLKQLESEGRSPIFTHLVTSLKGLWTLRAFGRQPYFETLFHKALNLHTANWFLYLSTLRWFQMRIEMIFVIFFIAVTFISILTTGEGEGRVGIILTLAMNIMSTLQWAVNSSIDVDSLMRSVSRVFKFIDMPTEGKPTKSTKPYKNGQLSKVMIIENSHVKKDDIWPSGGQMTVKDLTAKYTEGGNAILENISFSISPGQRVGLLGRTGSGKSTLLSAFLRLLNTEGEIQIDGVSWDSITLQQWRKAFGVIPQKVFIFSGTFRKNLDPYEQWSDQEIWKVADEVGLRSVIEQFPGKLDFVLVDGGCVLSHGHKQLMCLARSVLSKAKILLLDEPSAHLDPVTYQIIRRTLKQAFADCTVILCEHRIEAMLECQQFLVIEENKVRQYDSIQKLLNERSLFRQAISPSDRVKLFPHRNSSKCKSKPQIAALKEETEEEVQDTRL
T1 sequence (P13569 with tags, fused parts or gaps DEL508-508): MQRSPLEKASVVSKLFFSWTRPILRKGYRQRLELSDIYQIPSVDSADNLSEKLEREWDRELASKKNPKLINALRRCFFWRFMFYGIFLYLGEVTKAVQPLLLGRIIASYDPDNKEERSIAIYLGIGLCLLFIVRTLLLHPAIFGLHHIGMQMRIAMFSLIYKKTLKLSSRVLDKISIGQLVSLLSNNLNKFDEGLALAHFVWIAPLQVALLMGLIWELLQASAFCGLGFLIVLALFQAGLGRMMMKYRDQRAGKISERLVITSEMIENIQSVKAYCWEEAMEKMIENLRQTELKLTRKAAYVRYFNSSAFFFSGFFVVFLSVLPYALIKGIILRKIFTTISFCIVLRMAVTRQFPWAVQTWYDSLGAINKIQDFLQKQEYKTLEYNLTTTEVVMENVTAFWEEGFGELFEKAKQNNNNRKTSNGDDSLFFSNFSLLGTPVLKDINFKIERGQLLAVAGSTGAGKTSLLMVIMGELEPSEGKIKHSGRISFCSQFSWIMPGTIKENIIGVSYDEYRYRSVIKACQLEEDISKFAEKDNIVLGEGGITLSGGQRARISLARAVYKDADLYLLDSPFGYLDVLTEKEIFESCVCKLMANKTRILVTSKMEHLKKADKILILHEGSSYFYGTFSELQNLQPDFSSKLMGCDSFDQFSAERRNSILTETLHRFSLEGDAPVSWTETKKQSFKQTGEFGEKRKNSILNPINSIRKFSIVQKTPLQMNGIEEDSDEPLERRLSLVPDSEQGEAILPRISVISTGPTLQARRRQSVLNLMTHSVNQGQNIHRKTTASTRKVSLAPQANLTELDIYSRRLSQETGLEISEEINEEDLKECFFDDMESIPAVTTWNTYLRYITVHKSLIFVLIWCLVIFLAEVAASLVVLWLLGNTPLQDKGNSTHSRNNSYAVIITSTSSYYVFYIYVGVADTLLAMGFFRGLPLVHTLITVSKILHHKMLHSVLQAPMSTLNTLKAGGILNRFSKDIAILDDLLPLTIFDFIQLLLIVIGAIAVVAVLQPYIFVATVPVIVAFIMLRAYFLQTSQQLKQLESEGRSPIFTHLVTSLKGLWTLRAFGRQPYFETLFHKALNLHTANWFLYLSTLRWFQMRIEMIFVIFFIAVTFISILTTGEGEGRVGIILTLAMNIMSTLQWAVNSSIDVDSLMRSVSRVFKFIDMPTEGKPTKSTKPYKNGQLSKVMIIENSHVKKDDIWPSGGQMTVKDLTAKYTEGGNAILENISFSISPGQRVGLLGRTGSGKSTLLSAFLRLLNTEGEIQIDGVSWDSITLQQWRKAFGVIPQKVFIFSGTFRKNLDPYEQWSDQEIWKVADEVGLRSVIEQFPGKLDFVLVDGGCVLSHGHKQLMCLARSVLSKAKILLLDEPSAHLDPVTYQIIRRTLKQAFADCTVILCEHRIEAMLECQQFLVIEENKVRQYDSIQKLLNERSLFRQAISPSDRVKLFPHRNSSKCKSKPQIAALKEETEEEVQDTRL

CNCCCCOc1ccc(-c2n[nH]c3cc(Br)ccc23)c(F)c1 [LZH-00025, 4-(4-(6-bromo-1H-indazol-3-yl)-3-fluorophenoxy)-N-methylbutan-1-amine]
surface expression of delF508-CFTR (Band C, corrected to vimentin, DMSO = 100) (delF508-CFTR [1]; 3 μM VX-809 + 0.1 μM LZH compound, lane 5): 263 ± 27, N = 4 | surface expression of delF508-CFTR (Band C, corrected to vimentin, DMSO = 100) (delF508-CFTR [1]; 3 μM VX-809 + 0.5 μM LZH compound, lane 4): 323 ± 14, N = 4 | surface expression of delF508-CFTR (Band C, corrected to vimentin, DMSO = 100) (delF508-CFTR [1]; 3 μM VX-809 + 5 μM LZH compound, lane 3): 300 ± 42, N = 4 | influence on the effect of Lumacaftor (VX-809) on membrane expression of delF508-CFTR (words) (delF508-CFTR [1]; added to 3 μM VX-809): retains or even enhances the effect of Lumacaftor | fold increase of delF508-CFTR currents (ILZH+ATP+VX-770/IATP) (delF508-CFTR [2]; combined application with VX-770 (200 nM), 2.5 μM LZH compound): 7.7 ± 2.0, N = 3 fold | fold increase of delF508-CFTR currents (ILZH+ATP+VX-770/IATP) (delF508-CFTR [2]; combined application with VX-770, 0.5 μM LZH compound): 7.3 ± 0.8, N = 3 fold | fold increase of delF508-CFTR currents (ILZH+ATP/IATP) (delF508-CFTR [2]; single application, 5 μM): 3.6 ± 0.9, N = 4 fold | fold increase of G551D-CFTR currents (ILZH+ATP+VX-770/IATP) (G551D-CFTR; combined application with VX-770, 0.2 μM LZH compound): 8.0 ± 1.0, N = 3 fold | fold increase of G551D-CFTR currents (ILZH+ATP+VX-770/IATP) (G551D-CFTR; combined application with VX-770, 1 μM LZH compound): 11.0 ± 2.9, N = 4 fold | fold increase of G551D-CFTR currents (ILZH+ATP+VX-770/IATP) (G551D-CFTR; combined application with VX-770, 5 μM LZH compound): 9.7 ± 0.7, N = 4 fold | fold increase of G551D-CFTR currents (ILZH+ATP/IATP) (G551D-CFTR; 1 μM): 2.1 ± 0.2, N = 11 fold | fold increase of G551D-CFTR currents (ILZH+ATP/IATP) (G551D-CFTR; 5 μM): 4.9 ± 0.7, N = 14 fold | fold increase of G551D-CFTR currents (ILZH+ATP/IATP) (G551D-CFTR; 20 μM): 7.4 ± 0.5, N = 8 fold
